# According to US20060183202A1 (priority 2003, published 2006):
# How the values were obtained:
# [1] = target: DOGT1 (UGT73C5) (Arabidopsis thaliana, UniProt Q9ZQ94); format: cell-based
# [2] = target: UGT73C4 (Arabidopsis thaliana, UniProt Q9ZQ97); format: cell-based
# [3] = tested on: laboratory animals; conditions: in vivo; cited from earlier work
# [4] = tested on: DOGT1 promoter (PDOGT1-GUS); design: species or system Arabidopsis thaliana; conditions: in vivo
# [5] = tested on: A. thaliana wild-type Col-0; conditions: in vivo
# [6] = tested on: Saccharomyces cerevisiae strain YZGA452; format: cell-based
# [7] = tested on: DOGT1 mRNA expression; design: species or system Arabidopsis thaliana; conditions: in vivo
# [8] = tested on: wheat ribosomes; format: biochemical
# [9] = tested on: coleoptile elongation; conditions: in vivo; cited from earlier work
# UGT73C4, sequence (Q9ZQ97 whole entry, looked up): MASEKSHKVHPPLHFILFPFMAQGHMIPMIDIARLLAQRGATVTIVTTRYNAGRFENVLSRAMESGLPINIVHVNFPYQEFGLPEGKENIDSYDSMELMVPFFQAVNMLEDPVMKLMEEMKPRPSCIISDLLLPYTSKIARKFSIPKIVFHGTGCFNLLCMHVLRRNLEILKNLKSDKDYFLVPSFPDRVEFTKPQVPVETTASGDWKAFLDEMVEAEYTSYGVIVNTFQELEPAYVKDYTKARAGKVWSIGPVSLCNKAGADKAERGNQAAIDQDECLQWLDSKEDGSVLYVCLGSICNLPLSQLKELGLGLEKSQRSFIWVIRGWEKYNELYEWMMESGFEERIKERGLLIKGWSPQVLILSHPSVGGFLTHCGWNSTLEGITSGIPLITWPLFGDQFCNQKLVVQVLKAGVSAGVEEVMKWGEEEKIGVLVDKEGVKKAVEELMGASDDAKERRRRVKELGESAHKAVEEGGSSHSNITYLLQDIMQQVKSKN
# DOGT1 (UGT73C5), sequence (Q9ZQ94 whole entry, looked up): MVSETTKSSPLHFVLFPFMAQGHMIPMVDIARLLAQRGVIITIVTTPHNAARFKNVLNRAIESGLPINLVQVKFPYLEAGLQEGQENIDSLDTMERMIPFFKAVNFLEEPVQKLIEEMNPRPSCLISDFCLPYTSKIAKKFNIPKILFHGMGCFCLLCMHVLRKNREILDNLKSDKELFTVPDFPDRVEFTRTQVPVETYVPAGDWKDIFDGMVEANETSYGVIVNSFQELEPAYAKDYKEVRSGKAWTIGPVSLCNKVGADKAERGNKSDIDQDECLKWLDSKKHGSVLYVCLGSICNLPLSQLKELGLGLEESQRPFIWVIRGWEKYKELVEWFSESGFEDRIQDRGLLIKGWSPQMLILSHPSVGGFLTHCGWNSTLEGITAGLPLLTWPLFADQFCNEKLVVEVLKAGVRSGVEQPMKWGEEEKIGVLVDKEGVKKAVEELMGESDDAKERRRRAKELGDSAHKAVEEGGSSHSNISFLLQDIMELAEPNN
compound,measurement,setting,value
"CC(=O)O[C@@H]1C[C@]2(C)[C@@]3(CO)[C@H](O)C(=O)C(C)=C[C@H]3O[C@H]1[C@@]21CO1 [3-ADON, 3-acetyl-deoxynivalenol]",resistance to the toxin conferred by DOGT1 expression (detoxification),[1],inability to confer resistance
same,resistance to the toxin conferred by UGT73C4 expression (detoxification),[2],failed to confer resistance
same,fold less toxic than DON to laboratory animals,[3],about 2 fold
"CC(=O)OC[C@]12[C@H](O)C(=O)C(C)=C[C@H]1O[C@@H]1[C@H](O)C[C@@]2(C)[C@]12CO2 [15-ADON, 15-acetyl-deoxynivalenol]",resistance to the toxin conferred by DOGT1 expression (detoxification),[1],protection
same,resistance to the toxin conferred by UGT73C4 expression (detoxification),[2],had the ability to detoxify
"CC1=C[C@H]2O[C@@H]3[C@H](O)C[C@](C)([C@@]2(CO)[C@H](O)C1=O)[C@]31CO1 [DON, deoxynivalenol]",induction of PDOGT1-GUS reporter expression,[4],induce
same,resistance to the toxin conferred by DOGT1 expression (detoxification),[1],protects against
same,resistance to the toxin conferred by UGT73C4 expression (detoxification),[2],had the ability to detoxify
same,main phytotoxic effect on wild-type plants,[5],slow germination
same,concentration sufficient to completely inhibit growth of yeast,[6],180 ppm
same,induction of DOGT1 transcript (RT-PCR),[7],DON inducible expression
same,luminescence remaining (luciferase activity of control),[8],3.1%
same,reporter enzyme (luciferase) activity compared to the control (100%),[8],36.8%
"CC1=CC2OC3C(O[C@@H]4O[C@H](CO)[C@@H](O)[C@H](O)[C@H]4O)CC(C)(C34CO4)C2(CO)C(O)C1=O (stereo partly drawn) [DON-3-glucoside, 3-β-D-Glucopyranosyl-4-deoxynivalenol]",inhibition of luciferase activity,[8]; 20 µM,8%
"CC(=O)OC[C@]12C[C@H](OC(=O)CC(C)C)C(C)=C[C@H]1O[C@@H]1[C@H](O)[C@@H](O)[C@@]2(C)[C@]12CO2 [HT-2-toxin, HT-2 toxin]",resistance to the toxin conferred by UGT73C4 expression (detoxification),[2],failed to confer resistance
"CC/C=C\C[C@H]1C(=O)CC[C@@H]1CC(=O)O [JA, jasmonic acid]",induction of PDOGT1-GUS reporter expression,[4],No induction
same,induction of DOGT1 transcript (RT-PCR),[7],weak induction
"CC1=C[C@H]2O[C@@H]3[C@H](O)[C@@H](O)[C@](C)([C@@]2(CO)[C@H](O)C1=O)[C@]31CO1 [NIV, nivalenol]",resistance to the toxin conferred by DOGT1 expression (detoxification),[1],lack of activity
same,resistance to the toxin conferred by UGT73C4 expression (detoxification),[2],failed to confer resistance
same,toxicity compared with DON in animal systems,[3],higher toxicity
"O=C(O)c1ccccc1O [SA, salicylic acid]",induction of PDOGT1-GUS reporter expression,[4],No induction
same,induction of DOGT1 transcript (RT-PCR),[7],rather weakly
"C/C=C\C(=O)O[C@@H]1C[C@H]2O[C@@H]3C=C(C)C(=O)C[C@]3(C)[C@]1(C)[C@]21CO1 [TTC, trichothecin]",resistance to the toxin conferred by UGT73C4 expression (detoxification),[2],failed to confer resistance
Acetyl-DON [ADON],overall toxicity compared with the non-acetylated form (DON),[9],equivalent
diacetoxyscirpenol [DAS],resistance to the toxin conferred by UGT73C4 expression (detoxification),[2],failed to confer resistance
veruccarin A [VA],resistance to the toxin conferred by UGT73C4 expression (detoxification),[2],failed to confer resistance
